In patent US8455523B2, “Compositions and methods for treating hyperlipidemias” (The Research Foundation of State University of New York, priority 2010, dated 2013):

Tests used:
[1] = test system: hepatic mRNA of ER stress, inflammation and lipid metabolism genes; assay: Hepatic mRNA quantification (qPCR, XBP-1 splicing) in treated mice; format: in vivo; details: liver; for Bip, Ire1α, CHOP, PERK and ATF6 mRNA levels: BMS MTPi one week, lovastatin or pioglitazone with MTPi
From the text: FIGS. 6a and 6b. Liver samples from FIG. 16 were used to isolate total mRNA and to quantify expression of different candidate genes. Statistical analyses were as described in FIGS. 16-17.
FIGS. 9a and 9b. C57B/6J mice were fed a western diet for 8 weeks and then treated with MTP inhibitor and other indicated compounds for 8 days as described in FIG. 16. Liver samples were used to isolate mRNA and to quantify mRNA levels with different candidate genes. Stars on MTPi group represent comparison with the control group.
FIG. 16. Age matched wildtype C57/BL6J animals chow fed animals were treated with DMSO (control) or MTP inhibitor (MTPi) for one week. Age matched wildtype C57/BL6J were fed WD for one month and were administered MTPi, Lovastatin, (Lova), Pioglitazone (Pio) or 4-phenylbutyric acid (PBA) every day for one week. All drugs were administered by oral gavage. Animals were sacrificed on day 7 and livers were harvested. mRNA was extracted and subjected to qPCR analysis. * represent comparison DMSO control; # represent comparisons to WD control; @ represent comparisons to WD MTP inhibitor treated animals.
mRNA quantifications and primers used: Total RNA from tissues and cells were isolated using TriZol™ (Invitrogen). The purity and integrity of RNA were assessed by the A260/A280 ratio and 1% agarose gel electrophoresis, respectively. Only the RNAs with ratios more than 1.7 were used for cDNA synthesis. The first strand cDNA was synthesized using Omniscript RT (Qiagen) kit. Briefly, 2 μg of total RNA, 1 μM random primers (Invitrogen), 0.5 mM dNTP solution, and 0.5 U/μl Omniscript Reverse Transcriptase were incubated at 37° C. for 1 h in 20 μl of RT buffer and the reaction was terminated by incubating at 95° C. for 5 minutes. Each reaction of quantitative RT-PCR was carried out in a volume of 20 μl consisting of 5 μl cDNA sample (1:100 dilution of the first strand cDNA sample) and 15 μl of PCR master mix solution containing 1×PCR reaction buffer, 6 mM MgCl2, 200 nM primer pair, 0.025 U/μl HotStar Gold™ DNA polymerase, 200 μM dNTP solution, and 0.3 μl SYBR Green I solution (gPCR™ Core Kit for SYBR Green I, Eurogentec). The PCR was carried out by incubating the reaction mixture first for 10 minute at 95° C. followed by 40 cycles of 15 sec incubations at 95° C. and 1 min at 60° C. in the ABI 7000 SDS PCR machine. The data were analyzed using ΔΔCT method according to manufacturer's instruction and presented as arbitrary units. The primers used in this study were designed with the PrimerExpress 3.0 software (Applied Biosystems, CA) and are presented as Table 1.

MTP = molecular target: T1, MTP (Mus musculus, UniProt O08601); assay: Determination of MTP activity in tissues (liver homogenates of treated mice); format: in vivo; details: for MTP activity (liver): C57Bl/6J, MTPi 1 mg/kg/day oral one week, lovastatin 50 or pioglitazone 25 mg/kg/day added to MTPi; for MTP specific activity (liver): WD fed C57Bl/6J, drug alone, one week
T1 construct: small pieces (0.1 g) of liver and ˜1-cm segments of proximal small intestine were homogenized; from tissue; host or cells: mouse liver (C57BL/6J; Reversa mice in some experiments); supernatant of ultracentrifuged homogenate
T1 sequence (O08601 22-894): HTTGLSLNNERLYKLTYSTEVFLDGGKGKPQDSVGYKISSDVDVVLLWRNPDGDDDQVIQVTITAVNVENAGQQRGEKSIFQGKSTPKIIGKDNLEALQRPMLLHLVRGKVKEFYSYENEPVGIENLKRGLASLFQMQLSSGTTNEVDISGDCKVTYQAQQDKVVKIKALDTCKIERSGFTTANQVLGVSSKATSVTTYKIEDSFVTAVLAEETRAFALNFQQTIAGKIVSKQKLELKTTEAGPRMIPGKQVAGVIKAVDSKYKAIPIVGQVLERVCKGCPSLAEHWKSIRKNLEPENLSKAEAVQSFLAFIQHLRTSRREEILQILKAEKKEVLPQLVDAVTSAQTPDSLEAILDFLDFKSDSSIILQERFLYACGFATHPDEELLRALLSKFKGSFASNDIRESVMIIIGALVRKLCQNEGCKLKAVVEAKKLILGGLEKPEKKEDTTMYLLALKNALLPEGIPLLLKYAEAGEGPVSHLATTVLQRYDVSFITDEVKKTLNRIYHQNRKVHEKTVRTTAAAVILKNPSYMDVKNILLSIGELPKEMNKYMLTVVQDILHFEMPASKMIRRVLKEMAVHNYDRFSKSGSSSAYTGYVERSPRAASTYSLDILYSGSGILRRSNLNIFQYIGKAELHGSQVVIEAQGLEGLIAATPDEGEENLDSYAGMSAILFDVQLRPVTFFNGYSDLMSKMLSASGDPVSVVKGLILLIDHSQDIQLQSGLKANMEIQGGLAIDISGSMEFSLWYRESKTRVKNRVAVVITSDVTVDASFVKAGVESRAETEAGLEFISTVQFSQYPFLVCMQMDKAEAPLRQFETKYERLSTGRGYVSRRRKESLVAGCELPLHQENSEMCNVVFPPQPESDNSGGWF
T1 sequence (P09103 21-509 partner limits assumed): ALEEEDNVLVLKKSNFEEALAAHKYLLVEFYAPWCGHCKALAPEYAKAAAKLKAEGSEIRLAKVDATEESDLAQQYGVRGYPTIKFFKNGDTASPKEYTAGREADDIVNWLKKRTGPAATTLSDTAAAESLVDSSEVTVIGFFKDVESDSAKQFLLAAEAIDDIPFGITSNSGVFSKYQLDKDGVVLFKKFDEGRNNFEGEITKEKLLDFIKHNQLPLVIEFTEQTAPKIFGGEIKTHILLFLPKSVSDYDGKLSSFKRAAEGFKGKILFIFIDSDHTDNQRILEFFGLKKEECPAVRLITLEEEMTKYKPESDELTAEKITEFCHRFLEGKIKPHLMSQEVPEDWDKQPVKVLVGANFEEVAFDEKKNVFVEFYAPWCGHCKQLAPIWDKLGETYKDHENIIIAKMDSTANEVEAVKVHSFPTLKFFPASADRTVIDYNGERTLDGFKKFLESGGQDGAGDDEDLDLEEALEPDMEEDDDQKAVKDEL
Description: After extensive washes with ice-cold PBS, small pieces (0.1 g) of liver and ˜1-cm segments of proximal small intestine were homogenized with 1 ml of ice-cold 1 mM Tris-HCl, pH 7.6, 1 mM EGTA, and 1 mM MgCl2 buffer in a glass homogenizer. The homogenates were centrifuged (SW55 Ti rotor, 50,000 rpm, 10° C., 1 h), and supernatants were used for MTP assay as described before (41; 42) using a kit (Chylos, Inc.).

[2] = WD five weeks, treatment in last week, MTPi ± pioglitazone or lovastatin
[3] = WD 8 weeks, CP-346086 1 week ± lovastatin or WY14643

Row | SMILES | Bip, Ire1α, CHOP, PERK and ATF6 mRNA levels [1] | MTP activity (liver) (MTP) | MTP specific activity (liver) (MTP) | hepatic MTP activity (MTP; [2]) | Ire1α mRNA and spliced form of XBP-1 ([1]; WD 8 weeks, CP-346086 ± lovastatin or WY14643, 8 days) | hepatic MTP activity (MTP; [3])
1 | CCc1ccc(CCOc2ccc(CC3SC(=O)NC3=O)cc2)nc1 (racemic) [pioglitazone, (RS)-5-(4-[2-(5-ethylpyridin-2-yl)ethoxy]benzyl)thiazolidine-2,4-dione] | significantly lower | not further affected | no effect | unaffected |  | 
2 | Cc1cccc(Nc2cc(Cl)nc(SCC(=O)O)n2)c1C [WY14643] |  |  |  |  | no effect | no further effect
3 | CC[C@H](C)C(=O)O[C@H]1C[C@@H](C)C=C2C=C[C@H](C)[C@H](CC[C@@H]3C[C@@H](O)CC(=O)O3)[C@H]21 [lovastatin] | significantly lower | not further affected | no effect | unaffected |  | no further effect
